Experimental data as given in patent US11279691B2, “Substituted pyridine and pyrazine compounds as PDE4 inhibitors” (Dart Neuroscience LLC, priority 2013, dated 2022).

Target: T1, PDE4D3 (Homo sapiens, UniProt Q08499)
T1 construct: GST
Format: biochemical
Settings: GST-tagged PDE4D3, 200 nM FAM-cAMP, 11-point dose-response; read-out: PD4d3 pEC50 (converted)

T1 sequence (Q08499 1-673 isoform Q08499-2): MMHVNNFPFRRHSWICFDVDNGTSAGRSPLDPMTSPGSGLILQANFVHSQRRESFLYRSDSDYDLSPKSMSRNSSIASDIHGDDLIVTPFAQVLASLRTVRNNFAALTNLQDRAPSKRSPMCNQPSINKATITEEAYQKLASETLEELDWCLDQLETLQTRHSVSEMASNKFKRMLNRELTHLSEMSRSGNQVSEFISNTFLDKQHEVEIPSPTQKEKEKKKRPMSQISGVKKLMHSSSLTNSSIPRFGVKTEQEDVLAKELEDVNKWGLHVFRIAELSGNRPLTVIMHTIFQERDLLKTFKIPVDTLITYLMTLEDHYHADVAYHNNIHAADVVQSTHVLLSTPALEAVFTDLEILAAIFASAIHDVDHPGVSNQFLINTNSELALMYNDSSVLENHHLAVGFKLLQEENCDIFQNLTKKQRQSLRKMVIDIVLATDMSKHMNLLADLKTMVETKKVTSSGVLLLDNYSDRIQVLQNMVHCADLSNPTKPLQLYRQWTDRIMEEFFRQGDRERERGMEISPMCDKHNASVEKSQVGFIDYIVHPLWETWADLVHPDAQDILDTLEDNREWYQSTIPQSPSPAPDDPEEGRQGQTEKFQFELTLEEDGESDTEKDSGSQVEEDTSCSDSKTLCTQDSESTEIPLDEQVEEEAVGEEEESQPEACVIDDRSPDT

Row | Structure (SMILES) | EC50 [nM]
1 | COc1ncc(Cc2cnc(C#N)nc2)nc1-c1cccc(OC(F)F)c1 [Example 107, 5-({6-[3-(Difluoromethoxy)phenyl]-5-methoxypyrazin-2-yl}methyl)pyrimidine-2-carbonitrile] | 100 to 1000
2 | CCOc1ncc(Cn2cnc(C(F)(F)F)n2)cc1-c1cccc(OC(F)F)c1 [Example 162, 3-[3-(Difluoromethoxy)phenyl]-2-ethoxy-5-{[3-(trifluoromethyl)-1H-1,2,4-triazol-1-yl]methyl}pyridine] | 100 to 1000
3 | Nc1ncn(Cc2cnc(OC(F)F)c(-c3cccc(Cl)c3)c2)n1 [Example 218, 1-{[5-(3-Chlorophenyl)-6-(difluoromethoxy)pyridin-3-yl]methyl}-1H-1,2,4-triazol-3-amine] | 100 to 1000
4 | CCOc1ncc(Cn2cc(CO)cn2)cc1-c1cccc(Cl)c1 [Example 273, (1-{[5-(3-Chlorophenyl)-6-ethoxypyridin-3-yl]methyl}-1H-pyrazol-4-yl)methanol] | 100 to 1000
5 | CCOc1ncc(Cn2cnc(CO)n2)cc1-c1ccccc1F [Example 277, (1-((6-Ethoxy-5-(2-fluorophenyl)pyridin-3-yl)methyl)-1H-1,2,4-triazol-3-yl)methanol] | > 10000
6 | CCCOc1ncc(Cc2cnc(N)nc2)cc1-c1ccc(F)c(F)c1 [Example 278, 5-((5-(3,4-Difluorophenyl)-6-propoxypyridin-3-yl)methyl)pyrimidin-2-amine] | < 100
7 | CCOc1ncc(Cc2cnc(N)nc2)cc1-c1ccc(F)c(Cl)c1 [Example 279, 5-((5-(3-Chloro-4-fluorophenyl)-6-ethoxypyridin-3-yl)methyl)pyrimidin-2-amine] | < 100
8 | COc1ncc(Cc2ccc(CC(N)=O)cc2)cc1-c1cccc(Cl)c1 [Example 280, 2-(4-((5-(3-Chlorophenyl)-6-methoxypyridin-3-yl)methyl)phenyl)acetamide] | < 100
9 | COc1ncc(Cc2cnc(CC(N)=O)nc2)cc1-c1ccc(F)cc1 [Example 281, 2-(5-{[5-(4-Fluorophenyl)-6-methoxypyridin-3-yl]methyl}pyrimidin-2-yl)acetamide] | < 100
10 | COc1ncc(Cc2cnc(C(N)=O)nc2)cc1-c1ccc(F)c(Cl)c1 [Example 282, 5-{[5-(3-Chloro-4-fluorophenyl)-6-methoxypyridin-3-yl]methyl}pyrimidine-2-carboxamide] | 100 to 1000
11 | COc1ncc(Cc2cnc(NCCO)nc2)cc1-c1ccc(F)cc1 [Example 283, 2-[(5-{[5-(4-Fluorophenyl)-6-methoxypyridin-3-yl]methyl}pyrimidin-2-yl)amino]ethan-1-ol] | 100 to 1000
12 | COc1ncc(Cc2cnc(C(C)(C)C#N)nc2)cc1-c1cccc(Cl)c1 [Example 284, 2-(5-((5-(3-Chlorophenyl)-6-methoxypyridin-3-yl)methyl)pyrimidin-2-yl)-2-methylpropanenitrile] | 1000 to 10000
13 | N#CCc1ncn(Cc2cnc(OC(F)F)c(-c3cccc(Cl)c3)c2)n1 [Example 285, 2-(1-{[5-(3-chlorophenyl)-6-(difluoromethoxy)pyridin-3-yl]methyl}-1H-1,2,4-triazol-3-yl)acetonitrile] | 100 to 1000
14 | CCOc1ccc(Cc2cnc(OC)c(-c3cccc(Cl)c3)c2)nc1 [Example 286, 3-(3-Chlorophenyl)-5((5-ethoxypyridin-2-yl)methyl)-2-methoxy pyridine] | > 10000
15 | COc1ncc(Cc2cnc(N)cn2)cc1-c1cccc(Cl)c1 [Example 287, 5-((5-(3-Chlorophenyl)-6-methoxypyridin-3-yl)methyl)pyrazin-2-amine] | < 100
16 | COc1ncc(Cc2cnc(N)cn2)cc1-c1ccc(F)c(Cl)c1 [Example 288, 5-((5-(3-Chloro-4-fluorophenyl)-6-methoxypyridin-3-yl)methyl)pyrazin-2-amine] | < 100
17 | CCOc1cnc(Cc2cnc(OC)c(-c3cccc(Cl)c3)c2)cn1 [Example 289, 2-((5-(3-Chlorophenyl)-6-methoxypyridin-3-yl)methyl)-5-ethoxypyrazine] | 100 to 1000
18 | COc1ncc(Cc2cnc(NCCO)cn2)cc1-c1cccc(Cl)c1 [Example 290, 2-((5-((5-(3-Chlorophenyl)-6-methoxypyridin-3-yl)methyl)pyrazin-2-yl)amino) ethanol] | < 100
19 | COc1ncc(Cc2cnc(N3CCOCC3)nc2)cc1-c1cccc(Cl)c1 [Example 292] | 1000 to 10000
20 | CCOc1ncc(Cc2cnc(N)nc2)nc1-c1ccc(F)c(F)c1 [Example 293, 5-((6-(3,4-difluorophenyl)-5-ethoxypyrazin-2-yl)methyl)pyrimidin-2-amine] | < 100
21 | CCOc1ncc(Cc2cnc(NCCO)nc2)nc1-c1ccc(F)c(F)c1 [Example 294, 2-((5-((6-(3,4-difluorophenyl)-5-ethoxypyrazin-2-yl)methyl)pyrimidin-2-yl)amino)ethanol] | < 100
22 | COc1ncc(Cn2nnnc2CCO)cc1-c1cccc(Cl)c1 [Example 295, 2-(1-((5-(3-Chlorophenyl)-6-methoxypyridin-3-yl)methyl)-1H-tetrazol-5-yl)ethanol] | 1000 to 10000

Row | Structure (SMILES) | EC50 [nM]
23 | CCOc1ncc(Cn2nnnc2C)cc1-c1ccc(F)cc1 [Example 296, 2-Ethoxy-3-(4-fluorophenyl)-5-((5-methyl-1H-tetrazol-1-yl)methyl)pyridine] | < 100
24 | COc1ncc(Cn2cc(C(F)F)nc2C)cc1-c1ccnc(OC(F)F)c1 [Example 297, 2′-(Difluoromethoxy)-5-((4-(difluoromethyl)-2-methyl-1H-imidazol-1-yl)methyl)-2-methoxy-3,4′-bipyridine] | 100 to 1000
25 | COc1ncc(Cc2cnc(OCC(N)=O)nc2)cc1-c1cccc(Cl)c1 [Example 298, 2-((5-((5-(3-Chlorophenyl)-6-methoxypyridin-3-yl)methyl)pyrimidin-2-yl)oxy)acetamide] | < 100
26 | COc1ncc(Cc2cnc(CO)nc2)cc1-c1cccc(Cl)c1 [Example 299, (5-((5-(3-Chlorophenyl)-6-methoxypyridin-3-yl)methyl)pyrimidin-2-yl)methanol] | < 100
27 | OCc1ncn(Cc2cnc(OCC(F)(F)F)c(-c3cccc(Cl)c3)c2)n1 [Example 300, (1-((5-(3-Chlorophenyl)-6-(2,2,2-trifluoroethoxy)pyridin-3-yl)methyl)-1H-1,2,4-triazol-3-yl)methanol] | 100 to 1000
28 | COc1ncc(Cc2cnc(N)c(F)c2)cc1-c1ccnc(OC(F)F)c1 [Example 301, 5-((2′-(Difluoromethoxy)-2-methoxy-[3,4′-bipyridin]-5-yl)methyl)-3-fluoropyridin-2-amine] | < 100
29 | COc1ncc(Cc2cnc(O)nc2)cc1-c1cccc(Cl)c1 [Example 302, 5-((5-(3-Chlorophenyl)-6-methoxypyridin-3-yl)methyl)pyrimidin-2-ol] | 1000 to 10000
30 | COc1ncc(Cc2cnc(OCCO)nc2)cc1-c1cccc(Cl)c1 [Example 303, 2-((5-((5-(3-Chlorophenyl)-6-methoxypyridin-3-yl)methyl)pyrimidin-2-yl)oxy)ethanol] | < 100
31 | COc1ncc(Cc2cnc(OC(F)F)nc2)cc1-c1cccc(Cl)c1 [Example 304, 5-((5-(3-Chlorophenyl)-6-methoxypyridin-3-yl)methyl)-2-(difluoromethoxy)pyrimidine] | 100 to 1000
32 | COc1ncc(Cc2cnnc(C)c2)cc1-c1cccc(Cl)c1 [Example 305, 5-{[5-(3-Chlorophenyl)-6-methoxypyridin-3-yl]methyl}-3-methylpyridazine] | 100 to 1000
33 | CCOc1ncc(Cc2cncc(F)c2)cc1-c1ccnc(OC(F)F)c1 [Example 306, 3-[2-(Difluoromethoxy)pyridin-4-yl]-2-ethoxy-5-[(5-fluoropyridin-3-yl)methyl]pyridine] | < 100
34 | COc1ncc(Cn2ccc(C(N)=O)n2)cc1-c1ccnc(C#N)c1 [Example 307, 1-{[5-(2-Cyanopyridin-4-yl)-6-methoxypyridin-3-yl]methyl}-1H-pyrazole-3-carboxamide] | 1000 to 10000
35 | COc1ncc(Cn2ccc(C(N)=O)n2)cc1-c1cccc(Cl)c1 [Example 308, 1-{[5-(3-Chlorophenyl)-6-methoxypyridin-3-yl]methyl}-1H-pyrazole-3-carboxamide] | 100 to 1000
36 | COc1ncc(Cn2ccc(C(N)=O)n2)cc1-c1ccnc(OC(F)F)c1 [Example 309, 1-({5-[2-(Difluoromethoxy)pyridin-4-yl]-6-methoxypyridin-3-yl}methyl)-1H-pyrazole-3-carboxamide] | < 100
37 | CCOc1ncc(Cn2cnc(C(N)=O)c2)cc1-c1cccc(Cl)c1 [Example 310, 1-{[5-(3-Chlorophenyl)-6-ethoxypyridin-3-yl]methyl}-1H-imidazole-4-carboxamide] | 100 to 1000
38 | CCOc1ncc(Cn2cnc(C(N)=O)c2)cc1-c1ccnc(OC(F)F)c1 [Example 311, 1-({5-[2-(Difluoromethoxy)pyridin-4-yl]-6-ethoxypyridin-3-yl}methyl)-1H-imidazole-4-carboxamide] | 100 to 1000
39 | CCOc1ncc(Cn2cnc(C(N)=O)c2)nc1-c1cccc(Cl)c1 [Example 312, 1-{[6-(3-Chlorophenyl)-5-ethoxypyrazin-2-yl]methyl}-1H-imidazole-4-carboxamide] | < 100
40 | CCOc1ncc(Cn2ccc(C(N)=O)n2)nc1-c1cccc(Cl)c1 [Example 313, 1-{[6-(3-Chlorophenyl)-5-ethoxypyrazin-2-yl]methyl}-1H-pyrazole-3-carboxamide] | 100 to 1000
41 | CCOc1ncc(Cn2cnc(C(N)=O)c2)nc1-c1ccc(F)c(F)c1 [Example 314, 1-{[6-(3,4-Difluorophenyl)-5-ethoxypyrazin-2-yl]methyl}-1H-imidazole-4-carboxamide] | 100 to 1000
42 | COc1ncc(Cn2cc(CO)nc2C)cc1-c1ccnc(OC(F)F)c1 [Example 315, [1-({5-[2-(Difluoromethoxy)pyridin-4-yl]-6-methoxypyridin-3-yl}methyl)-2-methyl-1H-imidazol-4-yl]methanol] | 100 to 1000
43 | COc1ncc(Cn2nc(CO)cc2C)cc1-c1ccnc(OC(F)F)c1 [Example 316, [1-({5-[2-(Difluoromethoxy)pyridin-4-yl]-6-methoxypyridin-3-yl}methyl)-5-methyl-1H-pyrazol-3-yl]methanol] | 100 to 1000
